Source: US11634447B2 (priority 2012, dated 2023)
Where “and” joins values, the source holds several entries; their conditions need not be identical. Identical values can stand only once.

How the values were obtained:
FimH-CRD [1] = target: T1, FimH-CRD (Escherichia coli, UniProt P08191); experiment: Competitive binding assay by fluorescence polarization, assay 1 (compounds prepared by manual dilution); design: species or system E. coli
T1 construct: The first 177 amino acids of the FimH protein are expressed as a fusion protein; thrombin tag (printed as 'fusion protein with thrombin') (cleaved yes); made in house; host or cells: bacteria (pET21b plasmid)
T1 sequence (P08191 22-177): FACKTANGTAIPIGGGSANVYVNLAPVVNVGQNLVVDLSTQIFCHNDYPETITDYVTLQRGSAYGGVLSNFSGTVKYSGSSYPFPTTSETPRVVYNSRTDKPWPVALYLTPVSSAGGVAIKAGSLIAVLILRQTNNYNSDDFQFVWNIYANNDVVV
Experimental: (§1) The first 177 amino acids of the FimH protein are expressed as a fusion protein with thrombin in a pET21b plasmid in bacteria. This FimH protein sequence contains the carbohydrate recognition domain (CRD) and shall be termed FimH-CRD. Following bacterial expression of the protein, the FimH-CRD protein is purified to homogeneity and the thrombin tag removed by protease cleavage. A competitive binding assay by fluorescence polarization is performed using 5 nM of the Alexa 647 mannoside probe and 60 nM of the FimH-CRD. The samples are assayed in a low volume 384 well microtiter plate in a final volume of 20 μl. The final assay buffer conditions are the following, 50 mM Tris-Cl, ph 7.0, 100 mM NaCl, 1 mM EDTA, 5 mM β-mercaptoethanol, 0.05% BSA and 2.5% DMSO. Two assays are performed for FimH, termed assay 1 or assay 2. The assay conditions are the same for both assays except the following: assay 1 has compounds prepared by manual dilution in a serial dilution factor with 12-point dose response while assay 2 has compounds prepared by a robotics system also through a serial dilution factor (12 point dose response) and initially prepared in duplicate in 384 well-Corning polypropylene round bottom plates. The assay 2 plates have compound which is then frozen and must be thawed prior to use. Initially the Alexa 647 probe and the FimH-CRD are added to the assay buffer and then 0.5 μl of test compound (assay 1 or 2) between 0.4 nM to 75 μM final concentration are added (12 point titration with 3-fold serial dilution). Control wells for the Alexa 647 probe are prepared with the same conditions except for the addition of the FimH-CRD protein. Plates are then incubated for 5 hrs at room temperature in the dark and under humid conditions to prevent drying. Plates are read using the SpectraMax Paradigm multi-mode plate reader and the appropriate fluorescent polarization detection cartridge (Alexa-647).
(§2) Alexa 647 mannoside probe is prepared using the similar procedure reported for FAM mannoside (Han, Z. et. al., 2010, J. Med. Chem., 53, 4779) and is described in the scheme below.
(§3) To a blue colored stirred solution of (2S,3S,4S,5S,6R)-2-(4-aminobutoxy)-6-(hydroxymethyl)tetrahydropyran-3,4,5-triol (2.21 mg, 0.009 mmol) and the (2E)-2-[(2E,4E)-5-[3,3-dimethyl-5-sulfonato-1-(3-sulfonatopropyl)indol-1-ium-2-yl]penta-2,4-dienylidene]-3-[6-(2,5-dioxopyrrolidin-1-yl)oxy-6-oxo-hexyl]-3-methyl-1-(3-sulfonatopropyl)indoline-5-sulfonate (Potassium Ion (3)) (4.9 mg, 0.0044 mmol) in DMF (44 μL) is added Et3N (5.4 mg, 7.0 μL, 0.053 mmol) at RT. The solution is stirred at room temperature over night, concentrated, dissolved in water and purified on 12 g C-18 silica gel cartridge on Isolera system using acetonitrile in water (0 to 40%, 10 CV) and followed by lyophilization to afford Alexa 647 mannoside probe (3.3 mg, 34%) as deep blue solid.
(§4) The Kd values of the compounds are determined from dose response curves using twelve concentrations per compound in duplicate. Curves are fitted to data points using Fluorescence Polarization competitive displacement analysis, and Kds are interpolated from the resulting curves using GraphPad Prism software, version […] (GraphPad software Inc., San Diego, Calif., USA).

[2] = system: bacterial strain LF82 binding to the glycoprotein BSA-(Mannose)3; experiment: Bacterial Binding Assay (BBA); format: cell-based, Escherichia coli; conditions: read-out: Bacterial Binding Assay IC50, LF82/Luciferase strain binding to BSA-(Man)3 coated plates, luminescence
Outline: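 Inhibition of LF82/luciferase E. coli adhesion is read as luminescence after washing off unbound cells. Compound and bacteria (10^7 per well) are co-incubated 40-75 min at room temperature on wells coated with 0.5-2 μg/mL BSA-(Man)3, with BSA-only wells as background; IC50 values derived.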

FimH-CRD [3] = target: T1, FimH-CRD; experiment: Competitive binding assay by fluorescence polarization, assay 2 (compounds prepared by a robotics system, plates frozen and thawed); design: species or system E. coli; conditions: Assay 2 Kd, 5 nM Alexa 647 mannoside probe, 60 nM FimH-CRD, replicate values in one cell
Experimental: as §1, §2, §3, §4

[4] = Assay 1 Kd, 5 nM Alexa 647 mannoside probe, 60 nM FimH-CRD, replicate values in one cell
[5] = read-out: Assay 1 Kd, 5 nM Alexa 647 mannoside probe, 60 nM FimH-CRD, replicate values in one cell

Row | Structure (SMILES) | Kd (FimH-CRD [1]; [4]) | Kd (FimH-CRD [1]; [5]) | IC50 [2] | Kd (FimH-CRD [3])
1 | Cc1cc(/C=C/C[C@H]2O[C@H](CO)[C@@H](O)[C@H](O)[C@@H]2O)ccc1/C=C/C[C@H]1O[C@H](CO)[C@@H](O)[C@H](O)[C@@H]1O [Compound 27, ((2R,3S,4R,5S,6R)-2-(Hydroxymethyl)-6-[(E)-3-[3-methyl-4-[(E)-3-[(2R,3S,4R,5S,6R)-3,4,5-trihydroxy-6-(hydroxymethyl)tetrahydropyran-2-yl]prop-1-enyl]pheny]allyl]tetrahydropyran-3,4,5-triol)] | < 5 nM | < 5 nM | 800 nM | 
2 | OC[C@H]1O[C@H](C/C=C/c2ccc(/C=C/C[C@H]3O[C@H](CO)[C@@H](O)[C@H](O)[C@@H]3O)c(F)c2)[C@@H](O)[C@@H](O)[C@@H]1O [Compound 28] | < 5 nM | < 5 nM | 770 nM | 
3 | OC[C@H]1O[C@H](C/C=C/c2ccc(/C=C/C[C@H]3O[C@H](CO)[C@@H](O)[C@H](O)[C@@H]3O)cc2)[C@@H](O)[C@@H](O)[C@@H]1O [Compound 24, ((2R,3S,4R,5S,6R)-2-(Hydroxymethyl)-6-[(E)-3-[4-[(E)-3-[(2R,3S,4R,5S,6R)-3,4,5-trihydroxy-6-(hydroxymethyl)tetrahydropyran-2-yl]prop-1-enyl]phenyl]allyl]tetrahydropyran-3,4,5-triol)] | < 5 nM | < 5 nM | 650 nM | 
4 | OC[C@H]1O[C@H](c2csc([C@H]3O[C@H](CO)[C@@H](O)[C@H](O)[C@@H]3O)c2)[C@@H](O)[C@@H](O)[C@@H]1O [Compound 47, ((2R,3S,4R,5S,6R)-2-(Hydroxymethyl)-6-[5-[(2S,3S,4S,5S,6R)-3,4,5-trihydroxy-6-(hydroxymethyl)tetrahydropyran-2-yl]-3-thienyl]tetrahydropyran-3,4,5-triol)] |  |  |  | 44 nM and 37 nM and 51 nM and 36 nM
5 | COc1cc(/C=C/C[C@H]2O[C@H](CO)[C@@H](O)[C@H](O)[C@@H]2O)c(OC)cc1/C=C/C[C@H]1O[C@H](CO)[C@@H](O)[C@H](O)[C@@H]1O [Compound 30, ((2R,3S,4R,5S,6R)-2-[(E)-3-[2,5-Dimethoxy-4-[(E)-3-[(2R,3S,4R,5S,6R)-3,4,5-trihydroxy-6-(hydroxymethyl)tetrahydropyran-2-yl]prop-1-enyl]phenyl]allyl]-6-(hydroxymethyl)tetrahydropyran-3,4,5-triol)] | 7 nM and < 5 nM |  | 300 nM | 
6 | OC[C@H]1O[C@H](n2cc(-c3cccc(-c4cn([C@H]5O[C@H](CO)[C@@H](O)[C@H](O)[C@@H]5O)nn4)c3)nn2)[C@@H](O)[C@@H](O)[C@@H]1O [Compound 19, ((2R,3S,4S,5S,6S)-2-(Hydroxymethyl)-6-[4-[3-[1-[(2S,3S,4S,5S,6R)-3,4,5-trihydroxy-6-(hydroxymethyl)tetrahydropyran-2-yl]triazol-4-yl]phenyl]triazol-1-yl]tetrahydropyran-3,4,5-triol)] | 6 nM and < 5 nM |  | 430 nM | 
7 | CC(=O)N[C@@H]1[C@@H](O)[C@H](O)[C@@H](CO)O[C@H]1n1cc([C@H]2O[C@H](CO)[C@@H](O)[C@H](O)[C@@H]2O)nn1 [Compound 45, (N-[(2R,3R,4R,5S,6R)-4,5-Dihydroxy-6-(hydroxymethyl)-2-[4-[(2R,3S,4R,5S,6R)-3,4,5-trihydroxy-6-(hydroxymethyl)tetrahydropyran-2-yl]triazol-1-yl]tetrahydropyran-3-yl]acetamide)] |  |  |  | 707 nM and 576 nM and 558 nM and 591 nM
8 | N#Cc1cc(/C=C/C[C@H]2O[C@H](CO)[C@@H](O)[C@H](O)[C@@H]2O)ccc1/C=C/C[C@H]1O[C@H](CO)[C@@H](O)[C@H](O)[C@@H]1O [Compound 33, (2,5-Bis[(E)-3-[(2R,3S,4R,5S,6R)-3,4,5-trihydroxy-6-(hydroxymethyl)tetrahydropyran-2-yl]prop-1-enyl]benzonitrile)] | < 5 nM | < 5 nM | 390 nM | 
9 | COC(=O)c1cc(/C=C/C[C@H]2O[C@H](CO)[C@@H](O)[C@H](O)[C@@H]2O)ccc1/C=C/C[C@H]1O[C@H](CO)[C@@H](O)[C@H](O)[C@@H]1O [Compound 26, (Methyl 2,5-bis[(E)-3-[(2R,3S,4R,5S,6R)-3,4,5-trihydroxy-6-(hydroxymethyl)tetrahydropyran-2-yl]prop-1-enyl]benzoate)] | < 5 nM | < 5 nM | 850 nM | 
10 | O=C(C[C@H]1O[C@H](CO)[C@@H](O)[C@H](O)[C@@H]1O)Nc1cccc(NC(=O)C[C@H]2O[C@H](CO)[C@@H](O)[C@H](O)[C@@H]2O)c1 [Compound 48, (2-[(2R,3S,4R,5S,6R)-3,4,5-Trihydroxy-6-(hydroxymethyl)tetrahydropyran-2-yl]-N-[3-[[2-[(2R,3S,4R,5S,6R)-3,4,5-trihydroxy-6-(hydroxymethyl)tetrahydropyran-2-yl]acetyl]amino]phenyl]acetamide)] |  |  |  | 79 nM and 50 nM and 63 nM
11 | OC[C@H]1O[C@H](c2cccc([C@H]3O[C@H](CO)[C@@H](O)[C@H](O)[C@@H]3O)c2)[C@@H](O)[C@@H](O)[C@@H]1O [Compound 2] | 125 nM and 62 nM |  | 4950 nM | 
12 | O=C(C[C@H]1O[C@H](CO)[C@@H](O)[C@H](O)[C@@H]1O)NCc1ccc(CNC(=O)C[C@H]2O[C@H](CO)[C@@H](O)[C@H](O)[C@@H]2O)cc1 [Compound 49, (2-[(2R,3S,4R,5S,6R)-3,4,5-Trihydroxy-6-(hydroxymethyl)tetrahydropyran-2-yl]-N-[[4-[[[2-[(2R,3S,4R,5S,6R)-3,4,5-trihydroxy-6-(hydroxymethyl)tetrahydropyran-2-yl]acetyl]amino]methyl]phenyl]methyl]acetamide)] |  |  |  | 149 nM and 87 nM
13 | OC[C@H]1O[C@H](C/C=C/c2ccc(/C=C/C[C@H]3O[C@H](CO)[C@@H](O)[C@H](O)[C@@H]3O)c(Cl)c2)[C@@H](O)[C@@H](O)[C@@H]1O [Compound 29, ((2R,3S,4R,5S,6R)-2-[(E)-3-[3-Chloro-4-[(E)-3-[(2R,3S,4R,5S,6R)-3,4,5-trihydroxy-6-(hydroxymethyl)tetrahydropyran-2-yl]prop-1-enyl]phenyl]allyl]-6-(hydroxymethyl)tetrahydropyran-3,4,5-triol)] | 6 nM and 8 nM |  | 1300 nM | 
14 | O=[N+]([O-])c1cc(/C=C/C[C@H]2O[C@H](CO)[C@@H](O)[C@H](O)[C@@H]2O)ccc1/C=C/C[C@H]1O[C@H](CO)[C@@H](O)[C@H](O)[C@@H]1O [Compound 32, ((2R,3S,4R,5S,6R)-2-(Hydroxymethyl)-6-[(E)-3-[3-nitro-4-[(E)-3-[(2R,3S,4R,5S,6R)-3,4,5-trihydroxy-6-(hydroxymethyl)tetrahydropyran-2-yl]prop-1-enyl]phenyl]allyl]tetrahydropyran-3,4,5-triol)] | < 5 nM | < 5 nM | 340 nM | 
15 | OC[C@H]1O[C@H](c2ccc([C@H]3O[C@H](CO)[C@@H](O)[C@H](O)[C@@H]3O)s2)[C@@H](O)[C@@H](O)[C@@H]1O [Compound 46, ((2R,3S,4S,5S,6S)-2-(Hydroxymethyl)-6-[5-[(2S,3S,4S,5S,6R)-3,4,5-trihydroxy-6-(hydroxymethyl)tetrahydropyran-2-yl]-2-thienyl]tetrahydropyran-3,4,5-triol)] |  |  |  | 11 nM and 9 nM and 16 nM and 14 nM
